Test results from US20240293413A1, “COMPOUND AND METHOD FOR TREATING CHEMOTHERAPY-RELATED GASTROINTESTINAL SIDE EFFECTS” (ONQUALITY PHARMACEUTICALS CHINA LTD., priority 2021, published 2024).

How the values were obtained:
Assay type in all cases: in vivo
[1] = tested on: diarrhea caused by a chemotherapeutic agent in Balb/c mice; assay: Examples 230-271 (Table 4): oral CDK inhibitor, relief of diarrhea caused by a chemotherapeutic agent
From the text: Balb/c mice were fed for 1 week, and then divided into groups. The experiment was divided into a control group, a chemotherapeutic agent group, and a CDK inhibitor group, each of which comprised 10 mice, to perform the administration experiment, for which the administration dosage, mode, time and frequency were shown in Table 4. The control group: being intragastrically administered with the same solvent as that used in the CDK inhibitor group (the time was shown in Table 4), and then being injected/intragastrically administered with the same solvent as that used in the chemotherapeutic agent group (the administration mode was shown in Table 4): the chemotherapeutic agent group: being intragastrically administered with the same solvent as that used in the CDK inhibitor group (the time was shown in Table 4), and then being injected/intragastrically administered with the chemotherapeutic agent (the type, administration mode and dosage were shown in Table 4): the CDK inhibitor group: being intragastrically administered with the CDK inhibitor (the time was shown in Table 4), and then being administered with the chemotherapeutic agent (the mode and dosage were shown in Table 4).
The diarrhea grading of mice was observed and recorded every day.

[2] = tested on: diarrhea caused by a chemotherapeutic agent in Balb/c mice; assay: Examples 343-381 (Table 6): oral versus intravenous CDK inhibitor, relief of diarrhea caused by a chemotherapeutic agent;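 further: percent of treated mice whose diarrhea grade fell below chemotherapy-group average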
Summary of the method: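 Balb/c mice (10 per group) received the CDK inhibitor orally or by tail-vein injection, or vehicle, followed by a chemotherapeutic agent or its solvent. Diarrhea grade was scored daily.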

[3] = tested on: constipation caused by a chemotherapeutic agent in Balb/c mice; assay: Examples 406-443 (Table 8): various administration modes of the CDK inhibitor, relief of constipation caused by a chemotherapeutic agent;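 further: percent of treated mice relieved versus chemotherapy group by feces reduction rate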
From the text: Balb/c mice were fed for 1 week, and then divided into groups. The experiment was divided into a control group, a chemotherapeutic agent group, CDK inhibitor groups (including an oral administration group of a CDK inhibitor, an intravenous injection group of a CDK inhibitor, an intraperitoneal injection group of a CDK inhibitor, an intramuscular injection group of a CDK inhibitor, a local administration group of a CDK inhibitor), each of which comprised 10 mice, to perform the administration experiment, for which the administration dosage, mode, time and frequency were shown in Table 8. The control group: being administered with the same solvent as that used in the CDK inhibitor group (the time and mode were shown in Table 8), and then being injected/intragastrically administered with the same solvent as that used in the chemotherapeutic agent group (the administration mode was shown in Table 8): the chemotherapeutic agent group: being administered with the same solvent as that used in the CDK inhibitor group (the time and mode were shown in Table 8), and then being injected/intragastrically administered with the chemotherapeutic agent (the type, administration mode and dosage were shown in Table 8): the oral administration group of the CDK inhibitor: being intragastrically administered with the CDK inhibitor (the time was shown in Table 8), and then being administered with the chemotherapeutic agent (the mode and dosage were shown in Table 8): the intravenous injection group of the CDK inhibitor: being injected with the CDK inhibitor through tail vein (the time was shown in Table 8), and then being administered with the chemotherapeutic agent (the mode and dosage were shown in Table 8): the intraperitoneal injection group of the CDK inhibitor: being intraperitoneally injected with the CDK inhibitor (the time was shown in Table 8), and then being administered with the chemotherapeutic agent (the mode and dosage were shown in Table 8): the intramuscular injection group of the CDK inhibitor: being intramuscularly injected with the CDK inhibitor (the time was shown in Table 8), and then being administered with the chemotherapeutic agent (the mode and dosage were shown in Table 8); and the local administration group of the CDK inhibitor: the hair on the abdomen of mice was shaved (about 2 cm*2 cm), being applied with the CDK inhibitor (the time was shown in Table 8), and then being administered with the chemotherapeutic agent (the mode and dosage were shown in Table 8).
Feces reduction rate (%)=(the control group−the chemotherapeutic agent group or the CDK inhibitor group)/the control group*100%
The feces amount of mice within 3 hours was observed and recorded every day.

CC(=O)c1c(C)c2cnc(Nc3ccc(N4CCNCC4)cn3)nc2n(C2CCCC2)c1=O [Palbociclib]
30%: Relative remission rate of oral administration ([3]; Example 407, Doxorubicin (Dox) intraperitoneal injection 12 mg/kg single, CDK inhibitor oral 150 mg/kg single, 4 h before, cycle 8 days) | Relative remission rate of oral administration ([3]; Example 408, Doxorubicin (Dox) intraperitoneal injection 12 mg/kg single, CDK inhibitor oral 150 mg/kg single, 8 h before, cycle 8 days) | Relative remission rate of oral administration ([3]; Example 418, Etoposide (Etop1) intraperitoneal injection 100 mg/kg single, CDK inhibitor oral 150 mg/kg single, 12 h before, cycle 8 days) | Relative remission rate of oral administration ([3]; Example 419, Etoposide (Etop1) intraperitoneal injection 100 mg/kg single, CDK inhibitor oral 150 mg/kg single, 24 h before, cycle 8 days)
40%: Relative remission rate ([2]; Example 343, Etoposide intravenous injection 75 mg/kg single, CDK inhibitor oral 150 mg/kg single, 0.5 h before chemotherapeutic agent, cycle 8 days) | Relative remission rate ([2]; Example 358, Etoposide and cisplatin intravenous injection 50 (E) 5 (Cis) mg/kg single, CDK inhibitor oral 125 mg/kg single, 24 h before, cycle 7 days) | Relative remission rate of oral administration ([3]; Example 410, Doxorubicin (Dox) intraperitoneal injection 12 mg/kg single, CDK inhibitor oral 150 mg/kg single, 24 h before, cycle 8 days) | Relative remission rate of oral administration ([3]; Example 416, Etoposide (Etop1) intraperitoneal injection 100 mg/kg single, CDK inhibitor oral 150 mg/kg single, 4 h before, cycle 8 days) | Relative remission rate of oral administration ([3]; Example 417, Etoposide (Etop1) intraperitoneal injection 100 mg/kg single, CDK inhibitor oral 150 mg/kg single, 8 h before, cycle 8 days) | Relative remission rate of oral administration ([3]; Example 422, Etoposide and cisplatin intravenous injection 50 and 5 mg/kg single, CDK inhibitor oral 150 mg/kg single, 0.5 h before, cycle 7 days)
0%: Relative remission rate ([1]; Example 235, Doxorubicin (Dox) intraperitoneal injection 10 mg/kg single, CDK inhibitor oral 150 mg/kg single, 48 h before, cycle 12 days)
80%: Relative remission rate ([1]; Example 233, Doxorubicin (Dox) intraperitoneal injection 10 mg/kg single, CDK inhibitor oral 150 mg/kg single, 12 h before, cycle 12 days) | Relative remission rate ([2]; Example 344, Etoposide intravenous injection 75 mg/kg single, CDK inhibitor oral 150 mg/kg single, 4 h before, cycle 8 days)
70%: Relative remission rate ([1]; Example 231, Doxorubicin (Dox) intraperitoneal injection 10 mg/kg single, CDK inhibitor oral 150 mg/kg single, 4 h before, cycle 12 days) | Relative remission rate ([1]; Example 232, Doxorubicin (Dox) intraperitoneal injection 10 mg/kg single, CDK inhibitor oral 150 mg/kg single, 8 h before, cycle 12 days) | Relative remission rate ([1]; Example 271, Vinorelbine (NVB) intraperitoneal injection 10 mg/kg single, CDK inhibitor oral 200 mg/kg single, 12 h before, cycle 7 days) | Relative remission rate ([2]; Example 357, Etoposide and cisplatin intravenous injection 50 (E) 5 (Cis) mg/kg single, CDK inhibitor oral 125 mg/kg single, 4 h before, cycle 7 days)
60%: Relative remission rate ([1]; Example 249, Methotrexate (MTX) oral administration 400 mg/kg single, CDK inhibitor oral 125 mg/kg single, 4 h before, cycle 7 days) | Relative remission rate ([1]; Example 250, Methotrexate (MTX) oral administration 400 mg/kg single, CDK inhibitor oral 125 mg/kg single, 24 h before, cycle 7 days) | Relative remission rate ([1]; Example 260, Cytarabine (Ara-C) intravenous injection 600 mg/kg single, CDK inhibitor oral 150 mg/kg single, 6 h before, cycle 8 days) | Relative remission rate ([2]; Example 345, Etoposide intravenous injection 75 mg/kg single, CDK inhibitor oral 150 mg/kg single, 8 h before, cycle 8 days) | Relative remission rate ([2]; Example 346, Etoposide intravenous injection 75 mg/kg single, CDK inhibitor oral 150 mg/kg single, 12 h before, cycle 8 days) | Relative remission rate ([2]; Example 347, Etoposide intravenous injection 75 mg/kg single, CDK inhibitor oral 150 mg/kg single, 24 h before, cycle 8 days) | Relative remission rate ([2]; Example 379, Gemcitabine (GEM) intravenous injection 120 mg/kg single, CDK inhibitor oral 200 mg/kg single, 12 h before, cycle 8 days) | Relative remission rate of oral administration ([3]; Example 423, Etoposide and cisplatin intravenous injection 50 and 5 mg/kg single, CDK inhibitor oral 150 mg/kg single, 24 h before, cycle 7 days)
20%: Relative remission rate ([2]; Example 346, Etoposide intravenous injection 75 mg/kg single, CDK inhibitor intravenous injection 150 mg/kg single, 12 h before, cycle 8 days) | Relative remission rate ([2]; Example 357, Etoposide and cisplatin intravenous injection 50 (E) 5 (Cis) mg/kg single, CDK inhibitor intravenous injection 125 mg/kg single, 4 h before, cycle 7 days) | Relative remission rate ([2]; Example 379, Gemcitabine (GEM) intravenous injection 120 mg/kg single, CDK inhibitor intravenous injection 200 mg/kg single, 12 h before, cycle 8 days) | Relative remission rate of oral administration ([3]; Example 406, Doxorubicin (Dox) intraperitoneal injection 12 mg/kg single, CDK inhibitor oral 150 mg/kg single, 0.5 h before, cycle 8 days) | Relative remission rate of other administration mode ([3]; Example 409, Doxorubicin (Dox) intraperitoneal injection 12 mg/kg single, CDK inhibitor intravenous injection 150 mg/kg single, 12 h before, cycle 8 days) | Relative remission rate of other administration mode ([3]; Example 410, Doxorubicin (Dox) intraperitoneal injection 12 mg/kg single, CDK inhibitor intravenous injection 150 mg/kg single, 24 h before, cycle 8 days) | Relative remission rate of oral administration ([3]; Example 415, Etoposide (Etop1) intraperitoneal injection 100 mg/kg single, CDK inhibitor oral 150 mg/kg single, 0.5 h before, cycle 8 days) | Relative remission rate of other administration mode ([3]; Example 416, Etoposide (Etop1) intraperitoneal injection 100 mg/kg single, CDK inhibitor intravenous injection 150 mg/kg single, 4 h before, cycle 8 days) | Relative remission rate of other administration mode ([3]; Example 417, Etoposide (Etop1) intraperitoneal injection 100 mg/kg single, CDK inhibitor intravenous injection 150 mg/kg single, 8 h before, cycle 8 days) | Relative remission rate of other administration mode ([3]; Example 423, Etoposide and cisplatin intravenous injection 50 and 5 mg/kg single, CDK inhibitor intravenous injection 150 mg/kg single, 24 h before, cycle 7 days) | Relative remission rate of other administration mode ([3]; Example 437, Gemcitabine intravenous injection 120 mg/kg single, CDK inhibitor intravenous injection 200 mg/kg single, 12 h before, cycle 8 days)
50%: Relative remission rate ([1]; Example 230, Doxorubicin (Dox) intraperitoneal injection 10 mg/kg single, CDK inhibitor oral 150 mg/kg single, 0.5 h before, cycle 12 days) | Relative remission rate ([1]; Example 234, Doxorubicin (Dox) intraperitoneal injection 10 mg/kg single, CDK inhibitor oral 150 mg/kg single, 24 h before, cycle 12 days) | Relative remission rate ([2]; Example 366, Carboplatin (CBP) oral administration 200 mg/kg single, CDK inhibitor oral 150 mg/kg single, 24 h before, cycle 10 days) | Relative remission rate ([2]; Example 378, Gemcitabine (GEM) intravenous injection 120 mg/kg single, CDK inhibitor oral 200 mg/kg single, 12 h before, cycle 8 days) | Relative remission rate of oral administration ([3]; Example 409, Doxorubicin (Dox) intraperitoneal injection 12 mg/kg single, CDK inhibitor oral 150 mg/kg single, 12 h before, cycle 8 days) | Relative remission rate of oral administration ([3]; Example 437, Gemcitabine intravenous injection 120 mg/kg single, CDK inhibitor oral 200 mg/kg single, 12 h before, cycle 8 days)
10%: Relative remission rate ([2]; Example 343, Etoposide intravenous injection 75 mg/kg single, CDK inhibitor intravenous injection 150 mg/kg single, 0.5 h before chemotherapeutic agent, cycle 8 days) | Relative remission rate ([2]; Example 344, Etoposide intravenous injection 75 mg/kg single, CDK inhibitor intravenous injection 150 mg/kg single, 4 h before, cycle 8 days) | Relative remission rate ([2]; Example 345, Etoposide intravenous injection 75 mg/kg single, CDK inhibitor intravenous injection 150 mg/kg single, 8 h before, cycle 8 days) | Relative remission rate ([2]; Example 347, Etoposide intravenous injection 75 mg/kg single, CDK inhibitor intravenous injection 150 mg/kg single, 24 h before, cycle 8 days) | Relative remission rate ([2]; Example 358, Etoposide and cisplatin intravenous injection 50 (E) 5 (Cis) mg/kg single, CDK inhibitor intravenous injection 125 mg/kg single, 24 h before, cycle 7 days) | Relative remission rate ([2]; Example 366, Carboplatin (CBP) oral administration 200 mg/kg single, CDK inhibitor intravenous injection 150 mg/kg single, 24 h before, cycle 10 days) | Relative remission rate ([2]; Example 378, Gemcitabine (GEM) intravenous injection 120 mg/kg single, CDK inhibitor intravenous injection 200 mg/kg single, 12 h before, cycle 8 days) | Relative remission rate of other administration mode ([3]; Example 406, Doxorubicin (Dox) intraperitoneal injection 12 mg/kg single, CDK inhibitor intravenous injection 150 mg/kg single, 0.5 h before, cycle 8 days) | Relative remission rate of other administration mode ([3]; Example 407, Doxorubicin (Dox) intraperitoneal injection 12 mg/kg single, CDK inhibitor intravenous injection 150 mg/kg single, 4 h before, cycle 8 days) | Relative remission rate of other administration mode ([3]; Example 408, Doxorubicin (Dox) intraperitoneal injection 12 mg/kg single, CDK inhibitor intravenous injection 150 mg/kg single, 8 h before, cycle 8 days) | Relative remission rate of other administration mode ([3]; Example 415, Etoposide (Etop1) intraperitoneal injection 100 mg/kg single, CDK inhibitor intravenous injection 150 mg/kg single, 0.5 h before, cycle 8 days) | Relative remission rate of other administration mode ([3]; Example 418, Etoposide (Etop1) intraperitoneal injection 100 mg/kg single, CDK inhibitor intravenous injection 150 mg/kg single, 12 h before, cycle 8 days) | Relative remission rate of other administration mode ([3]; Example 419, Etoposide (Etop1) intraperitoneal injection 100 mg/kg single, CDK inhibitor intravenous injection 150 mg/kg single, 24 h before, cycle 8 days) | Relative remission rate of other administration mode ([3]; Example 422, Etoposide and cisplatin intravenous injection 50 and 5 mg/kg single, CDK inhibitor intravenous injection 150 mg/kg single, 0.5 h before, cycle 7 days)
